Experimental data published in US7247712B2, “Complex of hepatitis B virus-specific antigenic peptides associated with heat shock proteins and the application thereof” (priority 2000, dated 2007).
“Also recorded” adds a separate entry of the source.

B1: 7-mer peptide YVNTNMG (HBV core protein 88-94) (peptide)
peptide: YVNTNMG
notes: Eluted from tissue gp96 and also synthesized

Key:
BALB/cJ mice (H-2d) = experiment: Immunization in mice followed by cytotoxicity (CTL) analysis, standard 4-h 51Cr release assay; assay type: in vivo
Description: FIG. 1. Specific CTL response of BALB/cJ(H-2^d) mice after immunized with 7-mer peptied and gp96-7 mer peptide complex seven days. The lysis percentage of effector cells to specific target cells was measurated in a standard 4-h ^51Cr release assay. The lysis percent rate of the figure is the mean percentage of 10 mice.
BALB/cJ mice (H-2^d) 12-16 weeks old were used in this studies.
Sample was solubilized in 100 μl PBS and was injected subcutaneously in the neck back area of each mouse.
Therefore, we adopted the immunological manner of subcutaneous injection. The 7-mer peptide was dissolved in buffer (90% PBS, 10% DMSO/0.1% TFA) and gp96-7 mer peptide complex was dissolved in PBS buffer and then shaked severely for 1 minute before injection. For each mouse, the immunization dosage of 7-mer peptide was 0.2 nmol, 2 nmol and 20 nmol, respectively, the mice were immunized with peptide and Freund's after emulsion. The immunization dosage of gp96-7 mer peptide complex was 0.01 nmol, 0.05 nmol, 0.10 nmol and 0.50 nmol, respectively, the mice were immunized with subcutaneous injection in neck back area, and the second enhanced immunization was performed after one week from the first immunization, then cytotoxicity analysis was performed after 7 days. Each treatment group consisted of 10 mice. […]

[1] = biological target: T1, gp96 protein purified from human liver tissues (human, UniProt P14625 22-803); experiment: non-covalently bound peptides eluted with TFA from gp96 purified from HBV-infected liver cancer tissues, HPLC peak, MALDI-TOF, microsequencing
T1 construct: Native protein from tissue, over 95% purity; also called purified gp96 protein
T1 sequence (P14625 22-803 limits assumed): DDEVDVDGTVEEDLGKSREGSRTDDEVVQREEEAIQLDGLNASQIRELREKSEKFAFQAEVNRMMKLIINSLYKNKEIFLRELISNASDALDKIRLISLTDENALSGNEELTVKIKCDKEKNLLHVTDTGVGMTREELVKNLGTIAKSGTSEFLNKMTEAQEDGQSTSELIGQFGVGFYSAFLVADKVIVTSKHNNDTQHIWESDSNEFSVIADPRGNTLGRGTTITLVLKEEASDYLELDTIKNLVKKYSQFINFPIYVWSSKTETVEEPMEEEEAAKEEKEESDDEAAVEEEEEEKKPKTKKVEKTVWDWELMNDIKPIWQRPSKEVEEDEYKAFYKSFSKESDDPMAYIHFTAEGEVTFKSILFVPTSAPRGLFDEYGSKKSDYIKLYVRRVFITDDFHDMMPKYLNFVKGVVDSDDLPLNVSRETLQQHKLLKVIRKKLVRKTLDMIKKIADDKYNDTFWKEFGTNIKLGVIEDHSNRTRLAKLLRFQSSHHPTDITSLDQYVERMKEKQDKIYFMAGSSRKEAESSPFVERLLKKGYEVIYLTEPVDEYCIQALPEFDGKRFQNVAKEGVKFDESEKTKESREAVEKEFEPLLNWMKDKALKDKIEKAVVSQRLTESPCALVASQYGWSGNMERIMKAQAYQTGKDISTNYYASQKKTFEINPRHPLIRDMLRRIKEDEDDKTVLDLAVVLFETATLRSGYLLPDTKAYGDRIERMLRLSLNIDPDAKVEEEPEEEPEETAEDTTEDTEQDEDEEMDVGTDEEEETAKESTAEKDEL

Row | Molecule | effect of adjuvant on immunogenicity (BALB/cJ mice (H-2d); Freund's incomplete adjuvant, Freund's complete adjuvant, chromium alum) | specific cytotoxic T lymphocyte (CTL) response in mice after immunization (BALB/cJ mice (H-2d); subcutaneous immunization, 51Cr release assay) | binding result [1]
1 | YVNTNMG [7-mer peptide, 7-mer peptide “YVNTNMG or YVNVNMG”, amino acid residues 88-94 of the core protein of HBV] | can improve the immunological activity of it significantly | can elicit the specific CTL response in mice; also recorded: can elicit the specific cytotoxic T lymphocytes in mice | 
2 | B1 |  |  | binds
3 | YVNVNMG (Printed as the alternative to YVNTNMG) [7-mer peptide YVNVNMG (HBV core protein 88-94)] |  |  | binds
